Assay results published in patent US20230085307A1, “PYRIDAZINONE COMPOUND AND HERBICIDE” (NISSAN CHEMICAL CORPORATION, priority 2019, published 2023).

Legend:
velvetleaf [1] = experiment: Test Example 5: herbicidal effect by foliage application, plastic box (Table 20, symbol M); assay type: in vivo, velvetleaf (Abutilon theophrasti); settings: foliage application, AAH 320 g/ha, evaluated three weeks after application
Procedure, shortened: (§1)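 Plants sown in sterilized diluvial soil and grown 14 days in a greenhouse at 25° C to 30° C, then sprayed on the foliage with the compound's emulsion diluted in water to a predetermined herbicide amount. Injury to weeds and crops scored three weeks after application on a visual rating scale.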

persian speedwell [2] = experiment: Test Example 5: herbicidal effect by foliage application, plastic box (Table 20, symbol R); assay type: in vivo, Persian speedwell (Veronica persica); settings: foliage application, AAH 320 g/ha, evaluated three weeks after application
Procedure, shortened: as §1

chickweed [3] = experiment: Test Example 4: herbicidal effect by soil treatment (Table 19, symbol P); assay type: in vivo, common chickweed (Stellaria media); settings: amount of applied herbicide 320 g/ha
Procedure, shortened: (§2)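 Seeds were sown in sterilized diluvial soil and covered with about 1.5 cm of soil. An emulsion formulation diluted with water to a predetermined herbicide amount was sprayed evenly onto the soil surface. Plants grew in a greenhouse at 25° C. to 30° C., and the effect was scored three weeks after application using criteria from an earlier test.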

persian speedwell [4] = experiment: Test Example 4: herbicidal effect by soil treatment (Table 19, symbol R); assay type: in vivo, Persian speedwell (Veronica persica); settings: amount of applied herbicide 320 g/ha
Procedure, shortened: as §2

southern crabgrass [5] = experiment: Test Example 4: herbicidal effect by soil treatment (Table 19, symbol F); assay type: in vivo, southern crabgrass (Digitaria ciliaris); settings: amount of applied herbicide 320 g/ha
Procedure, shortened: as §2

lambsquarters [6] = experiment: Test Example 4: herbicidal effect by soil treatment (Table 19, symbol O); assay type: in vivo, lambsquarters (Chenopodium album); settings: amount of applied herbicide 320 g/ha
Procedure, shortened: as §2

green foxtail = experiment: Test Example 4: herbicidal effect by soil treatment (Table 19, symbol G); assay type: in vivo, green foxtail (Setaria viridis); settings: amount of applied herbicide 320 g/ha
Procedure, shortened: as §2

velvetleaf [7] = experiment: Test Example 4: herbicidal effect by soil treatment (Table 19, symbol M); assay type: in vivo, velvetleaf (Abutilon theophrasti); settings: amount of applied herbicide 320 g/ha
Procedure, shortened: as §2

southern crabgrass [8] = experiment: Test Example 5: herbicidal effect by foliage application, plastic box (Table 20, symbol F); assay type: in vivo, southern crabgrass (Digitaria ciliaris); settings: foliage application, AAH 320 g/ha, evaluated three weeks after application
Procedure, shortened: as §1

barnyard grass = experiment: Test Example 4: herbicidal effect by soil treatment (Table 19, symbol H); assay type: in vivo, barnyard grass (Echinochloa crus-galli); settings: amount of applied herbicide 320 g/ha
Procedure, shortened: as §2

windgrass = experiment: Test Example 5: herbicidal effect by foliage application, plastic box (Table 20, symbol L); assay type: in vivo, windgrass (Apera spica-venti); settings: foliage application, AAH 320 g/ha, evaluated three weeks after application
Procedure, shortened: as §1

blackgrass = experiment: Test Example 4: herbicidal effect by soil treatment (Table 19, symbol J); assay type: in vivo, blackgrass (Alopecurus myosuroides); settings: amount of applied herbicide 320 g/ha
Procedure, shortened: as §2

lambsquarters [9] = experiment: Test Example 5: herbicidal effect by foliage application, plastic box (Table 20, symbol O); assay type: in vivo, lambsquarters (Chenopodium album); settings: foliage application, AAH 320 g/ha, evaluated three weeks after application
Procedure, shortened: as §1

Japanese bulrush = experiment: Test Example 2: herbicidal activity, application during weed generation under submerged conditions (Table 17, symbol B); assay type: in vivo, Japanese bulrush (Schoenoplectus juncoides); settings: AAH 320 g/ha; application during weed generation, submerged conditions
Procedure, shortened: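 Effect on each weed is rated three weeks post-treatment, using the same scoring criteria as the preceding test. Plants grow from mixed-sown seed in flooded alluvial soil (4 cm water) at 25° C. to 30° C., and are treated at one to two leaves with diluted emulsion dropped onto the water.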

wild oat = experiment: Test Example 4: herbicidal effect by soil treatment (Table 19, symbol I); assay type: in vivo, wild oat (Avena fatua); settings: amount of applied herbicide 320 g/ha
Procedure, shortened: as §2

oval-leafed pondweed = experiment: Test Example 1: herbicidal activity, application before weed generation under submerged conditions (Table 16, symbol C); assay type: in vivo, oval-leafed pondweed (Monochoria vaginalis); settings: 320 g/ha applied herbicide
Procedure, shortened: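 Emulsion formulation, water-diluted to set dose, was put onto the flooded surface (4 cm depth, alluvial soil) the same day weeds were sown and 2.5-leaf rice transplanted. After 3 weeks at 25-30 °C under glass, each species was rated 0 (≤5% kill) to 5 (≥90% kill).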

chickweed [10] = experiment: Test Example 5: herbicidal effect by foliage application, plastic box (Table 20, symbol P); assay type: in vivo, common chickweed (Stellaria media); settings: foliage application, AAH 320 g/ha, evaluated three weeks after application
Procedure, shortened: as §1

Structure (SMILES): Cc1nn(C)c(=O)c(-c2c(-c3ccc(CSCC(F)(F)F)cc3)sc3ccc(F)cc23)c1O [2-331]
- M: velvetleaf, herbicidal effect (criteria 0-5) (velvetleaf [1]): 5 (Herbicidal rate of 90% or more (almost completely withered))
- R: persian speedwell, herbicidal effect (criteria 0-5) (persian speedwell [2]): 5 (Herbicidal rate of 90% or more (almost completely withered))
- herbicidal effect on P: chickweed (chickweed [3]): 0 (Herbicidal rate of 5% or less (almost no effect))
- herbicidal effect on R: persian speedwell (persian speedwell [4]): 4 (Herbicidal rate of 70% or more and less than 90%)
- herbicidal effect on F: southern crabgrass (southern crabgrass [5]): 3 (Herbicidal rate of 40% or more and less than 70%)
- herbicidal effect on O: lambsquarters (lambsquarters [6]): 4 (Herbicidal rate of 70% or more and less than 90%)
- herbicidal effect on G: green foxtail (green foxtail): 4 (Herbicidal rate of 70% or more and less than 90%)
- herbicidal effect on M: velvetleaf (velvetleaf [7]): 2 (Herbicidal rate of 20% or more and less than 40%)
- F: southern crabgrass, herbicidal effect (criteria 0-5) (southern crabgrass [8]): 5 (Herbicidal rate of 90% or more (almost completely withered))
- herbicidal effect on H: barnyard grass (barnyard grass): 3 (Herbicidal rate of 40% or more and less than 70%)
- L: windgrass, herbicidal effect (criteria 0-5) (windgrass): 4 (Herbicidal rate of 70% or more and less than 90%)
- herbicidal effect on J: blackgrass (blackgrass): 0 (Herbicidal rate of 5% or less (almost no effect))
- O: lambsquarters, herbicidal effect (criteria 0-5) (lambsquarters [9]): 5 (Herbicidal rate of 90% or more (almost completely withered))
- herbicidal effect rating, B: Japanese bulrush (Japanese bulrush): 0 (Herbicidal rate of 5% or less (almost no effect))
- herbicidal effect on I: wild oat (wild oat): 0 (Herbicidal rate of 5% or less (almost no effect))
- Herbicidal effect on C: oval-leafed pondweed (grade 0-5) (oval-leafed pondweed): 0 (Herbicidal rate of 5% or less (almost no effect))
- P: chickweed, herbicidal effect (criteria 0-5) (chickweed [10]): 5 (Herbicidal rate of 90% or more (almost completely withered))

Structure (SMILES): Cc1nn(C)c(=O)c(-c2c(-c3ccc(C#N)cc3)sc3ccc(F)cc23)c1O [2-340]
- M: velvetleaf, herbicidal effect (criteria 0-5) (velvetleaf [1]): 5 (Herbicidal rate of 90% or more (almost completely withered))
- R: persian speedwell, herbicidal effect (criteria 0-5) (persian speedwell [2]): 5 (Herbicidal rate of 90% or more (almost completely withered))
- herbicidal effect on P: chickweed (chickweed [3]): 5 (Herbicidal rate of 90% or more (almost completely withered))
- herbicidal effect on R: persian speedwell (persian speedwell [4]): 5 (Herbicidal rate of 90% or more (almost completely withered))
- herbicidal effect on F: southern crabgrass (southern crabgrass [5]): 5 (Herbicidal rate of 90% or more (almost completely withered))
- herbicidal effect on O: lambsquarters (lambsquarters [6]): 5 (Herbicidal rate of 90% or more (almost completely withered))
- herbicidal effect on G: green foxtail (green foxtail): 5 (Herbicidal rate of 90% or more (almost completely withered))
- herbicidal effect on M: velvetleaf (velvetleaf [7]): 5 (Herbicidal rate of 90% or more (almost completely withered))
- F: southern crabgrass, herbicidal effect (criteria 0-5) (southern crabgrass [8]): 5 (Herbicidal rate of 90% or more (almost completely withered))
- herbicidal effect on H: barnyard grass (barnyard grass): 5 (Herbicidal rate of 90% or more (almost completely withered))
- L: windgrass, herbicidal effect (criteria 0-5) (windgrass): 4 (Herbicidal rate of 70% or more and less than 90%)
- herbicidal effect on J: blackgrass (blackgrass): 3 (Herbicidal rate of 40% or more and less than 70%)
- O: lambsquarters, herbicidal effect (criteria 0-5) (lambsquarters [9]): 5 (Herbicidal rate of 90% or more (almost completely withered))
- herbicidal effect rating, B: Japanese bulrush (Japanese bulrush): 4 (Herbicidal rate of 70% or more and less than 90%)
- herbicidal effect on I: wild oat (wild oat): 3 (Herbicidal rate of 40% or more and less than 70%)
- Herbicidal effect on C: oval-leafed pondweed (grade 0-5) (oval-leafed pondweed): 4 (Herbicidal rate of 70% or more and less than 90%)
- P: chickweed, herbicidal effect (criteria 0-5) (chickweed [10]): 5 (Herbicidal rate of 90% or more (almost completely withered))
